Assay results reported in paper PMC12171880, “Selectivity and Safety Characterization of a Xanthine–Imidazothiazole Lead Structure: a Novel Tryptophan Hydroxylase Inhibitor of Peripheral Serotonin Synthesis” (ACS Pharmacology & Translational Science, 2025).

What was measured:
[1] = test system: 75 human receptors, enzymes, and ion channels; design: method as in EMA/508026/2017; conditions: ref EMA/508026/2017; cited from earlier work
human recombinant TPH1 = target: T1, human recombinant TPH1 (Homo sapiens, UniProt P17752); assay: TPH1 enzymatic activity assay (fluorescence, 96-well); format: biochemical
T1 construct: Full-length human TPH1 and TPH2 (UniProt entries P17752 and Q8IWU9); MBP (N); made in house
T1 sequence (P17752 1-444): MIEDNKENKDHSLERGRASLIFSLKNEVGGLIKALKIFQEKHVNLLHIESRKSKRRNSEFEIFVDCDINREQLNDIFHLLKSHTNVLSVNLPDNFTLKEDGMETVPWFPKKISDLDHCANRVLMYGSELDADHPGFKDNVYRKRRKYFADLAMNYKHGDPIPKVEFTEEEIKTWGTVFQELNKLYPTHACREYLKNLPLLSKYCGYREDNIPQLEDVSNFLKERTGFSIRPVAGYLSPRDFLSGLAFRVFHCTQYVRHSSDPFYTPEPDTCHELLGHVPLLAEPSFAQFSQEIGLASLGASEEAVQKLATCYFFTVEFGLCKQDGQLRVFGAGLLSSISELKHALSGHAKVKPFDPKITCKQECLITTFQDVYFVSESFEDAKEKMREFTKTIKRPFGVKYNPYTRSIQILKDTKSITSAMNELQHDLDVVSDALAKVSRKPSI

recombinant human TH = target: T2, recombinant human TH (Homo sapiens, UniProt P07101); assay: TH enzymatic activity assay (fluorescence, 96-well); format: biochemical
T2 construct: For purification of MBP-tagged full-length PAH and TH; made in house; host or cells: E. coli T7 Express (NEB) with pRARE2
Protocol: The TH enzymatic activity assay was performed using a 96-well plate format (Greiner). […] To initiate the reaction, L-Tyr (Fluka) was added (final concentration, 30 μM). The assay contained positive control samples (complete reaction mix, no inhibitor test compound), negative control samples (reaction mix without BH4), and an additional L-Tyr control (reaction mix without BH4, spiked with 25.5 μM or 27 μM L-Tyr) to measure the progression of the enzymatic reaction. All samples were measured in technical triplicates. The TH assay was performed at RT for 30 min. Depletion of the reaction substrate (L-Tyr) was continuously monitored at 240 s intervals by fluorescence measurements (ex.280 nm/em.306 nm) for 12 min using a Tecan Infinite 200 plate reader.
Negative control values (no enzyme or no substrate) were deducted from the positive control (full enzyme activity) and test compound values. Subsequently, the data were normalized (Pos. Ctr. = 100% of the enzyme activity). The results were further analyzed with GraphPad Prism 9 using the nonlinear regression model: log(inhibitor) vs. response−variableslope(fourparameters) which fits the following equation to the data: Y=Bottom+(Top−Bottom)/(1+10^((logIC50−X)×HillSlope))
The IC50 values were calculated from three independent experiments and are given as the mean ± SD.

human recombinant PAH = target: T3, human recombinant PAH (Homo sapiens, UniProt P00439); assay: PAH enzymatic activity assay (fluorescence, 96-well); format: biochemical
T3 construct: expression vectors for full-length human PAH (UniProt entry P00439); made in house; host or cells: E. coli T7 Express (NEB) with pRARE2
T3 sequence (P00439 1-452): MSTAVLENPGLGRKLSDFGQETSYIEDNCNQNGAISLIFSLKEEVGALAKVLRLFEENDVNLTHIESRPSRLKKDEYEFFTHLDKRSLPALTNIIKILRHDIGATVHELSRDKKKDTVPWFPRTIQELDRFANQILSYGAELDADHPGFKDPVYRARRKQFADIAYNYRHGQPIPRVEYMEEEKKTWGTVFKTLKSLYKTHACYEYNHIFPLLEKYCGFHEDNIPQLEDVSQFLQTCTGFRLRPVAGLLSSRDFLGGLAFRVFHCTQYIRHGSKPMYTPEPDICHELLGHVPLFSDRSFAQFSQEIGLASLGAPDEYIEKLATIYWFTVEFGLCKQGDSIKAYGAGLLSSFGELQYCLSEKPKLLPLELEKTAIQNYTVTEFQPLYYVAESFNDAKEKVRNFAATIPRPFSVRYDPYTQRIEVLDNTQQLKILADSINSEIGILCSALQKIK

A3 receptor = test system: A3 receptor; design: method as in EMA/508026/2017; conditions: 10 μM; ref EMA/508026/2017; cited from earlier work
human recombinant TPH2 = target: T4, human recombinant TPH2 (Homo sapiens, UniProt Q8IWU9); assay: TPH2 enzymatic activity assay (fluorescence, 96-well); format: biochemical
T4 construct: Full-length human TPH1 and TPH2 (UniProt entries P17752 and Q8IWU9); MBP (N); made in house
T4 sequence (Q8IWU9 1-490): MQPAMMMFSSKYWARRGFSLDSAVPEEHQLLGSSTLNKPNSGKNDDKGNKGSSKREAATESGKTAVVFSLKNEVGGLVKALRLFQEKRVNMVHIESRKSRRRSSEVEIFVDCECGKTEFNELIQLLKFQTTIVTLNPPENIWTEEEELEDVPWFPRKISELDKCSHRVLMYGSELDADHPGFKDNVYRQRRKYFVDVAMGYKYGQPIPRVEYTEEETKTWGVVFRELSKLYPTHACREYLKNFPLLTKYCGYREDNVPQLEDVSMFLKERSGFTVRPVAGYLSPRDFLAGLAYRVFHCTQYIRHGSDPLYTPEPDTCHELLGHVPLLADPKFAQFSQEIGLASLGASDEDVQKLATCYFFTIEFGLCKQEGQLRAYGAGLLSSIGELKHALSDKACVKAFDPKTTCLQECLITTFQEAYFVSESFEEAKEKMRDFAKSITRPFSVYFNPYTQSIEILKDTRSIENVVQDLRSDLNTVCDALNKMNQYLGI

5-HT2A receptor = test system: 5-HT2A receptor; design: method as in EMA/508026/2017; conditions: 10 μM; ref EMA/508026/2017; cited from earlier work
5-HT1B receptor = test system: 5-HT1B receptor; design: method as in EMA/508026/2017; conditions: 10 μM; ref EMA/508026/2017; cited from earlier work
[2] = 10 nM to 30 μM, 175 μM L-Phe, 10 μM BH4

T2 sequence (P07101 whole entry): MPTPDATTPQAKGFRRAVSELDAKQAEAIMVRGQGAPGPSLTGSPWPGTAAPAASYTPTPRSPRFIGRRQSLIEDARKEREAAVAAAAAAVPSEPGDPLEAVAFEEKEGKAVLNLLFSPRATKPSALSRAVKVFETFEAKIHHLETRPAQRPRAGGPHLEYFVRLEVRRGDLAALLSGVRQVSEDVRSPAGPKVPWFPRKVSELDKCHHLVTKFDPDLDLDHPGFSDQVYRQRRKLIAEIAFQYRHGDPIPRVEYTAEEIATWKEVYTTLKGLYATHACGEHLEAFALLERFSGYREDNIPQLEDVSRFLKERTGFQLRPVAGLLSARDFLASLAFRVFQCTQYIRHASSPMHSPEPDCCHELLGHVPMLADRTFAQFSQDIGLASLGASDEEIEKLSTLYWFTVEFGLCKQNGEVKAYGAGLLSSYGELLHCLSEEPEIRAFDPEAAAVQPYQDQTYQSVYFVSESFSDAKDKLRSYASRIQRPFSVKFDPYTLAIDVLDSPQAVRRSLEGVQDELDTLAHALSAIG

Compound: CCOC(=O)[C@@H](N)Cc1ccc(-c2cc(O[C@H](c3ccc(Cl)cc3-n3ccc(C)n3)C(F)(F)F)nc(N)n2)cc1 [LX1606, Telotristat ethyl]
- number of 75 receptors with over 50% of the activity inhibited [1]: 16
- IC50 (human recombinant TPH1; 3 nM to 10 μM, 15 μM L-Trp, 20 μM BH4): 1.44 µM
- Mean TH activity [%] (recombinant human TH; 10 nM): 94.16%
- Mean TH activity [%] (recombinant human TH; 30 nM): 93.57%
- Mean TH activity [%] (recombinant human TH; 100 nM): 94.52%
- Mean TH activity [%] (recombinant human TH; 300 nM): 91.31%
- Mean TH activity [%] (recombinant human TH; 1 μM): 96.27%
- Mean TH activity [%] (recombinant human TH; 3 μM): 96.83%
- Mean TH activity [%] (recombinant human TH; 10 μM): 87.53%
- Mean TH activity [%] (recombinant human TH; 30 μM): 71.72%
- reduction of TH activity compared to the positive control (recombinant human TH; two highest concentrations (10 and 30 μM)): ≤ 30%
- Mean PAH activity [%] (human recombinant PAH; 10 nM): 96.86%
- IC50 (human recombinant PAH; [2]): 7.91 µM
- Mean PAH activity [%] (human recombinant PAH; 30 nM): 97.35%
- Mean PAH activity [%] (human recombinant PAH; 300 nM): 94.55%
- Mean PAH activity [%] (human recombinant PAH; 1 μM): 91.16%
- Mean PAH activity [%] (human recombinant PAH; 3 μM): 64.20%
- Mean PAH activity [%] (human recombinant PAH; 10 μM): 37.02%
- Mean PAH activity [%] (human recombinant PAH; 30 μM): 33.74%
- PAH activity, not reduced below (human recombinant PAH; highest tested concentration (30 μM)): ≥ 30%
- IC50 (human recombinant PAH; supplementary CSV): 7.91 µM

Compound: Cc1ccn(-c2cc(Cl)ccc2[C@@H](Oc2cc(-c3ccc(C[C@H](N)C(=O)O)cc3)nc(N)n2)C(F)(F)F)n1 [LP778902, Telotristat]
- Mean TPH1 activity [%] (human recombinant TPH1; 3 nM): 99.75%
- Mean TPH1 activity [%] (human recombinant TPH1; 10 nM): 100.85%
- Mean TPH1 activity [%] (human recombinant TPH1; 30 nM): 101.72%
- Mean TPH1 activity [%] (human recombinant TPH1; 100 nM): 100.00%
- Mean TPH1 activity [%] (human recombinant TPH1; 300 nM): 91.38%
- Mean TPH1 activity [%] (human recombinant TPH1; 1 μM): 12.20%
- Mean TPH1 activity [%] (human recombinant TPH1; 3 μM): 4.78%
- Mean TPH1 activity [%] (human recombinant TPH1; 10 μM): 5.34%
- Mean TH activity [%] (recombinant human TH; 10 nM): 91.23%
- IC50 (recombinant human TH; 10 nM to 30 μM, 30 μM L-Tyr, 5 μM BH4): 8.11 µM
- Mean TH activity [%] (recombinant human TH; 30 nM): 96.35%
- Mean TH activity [%] (recombinant human TH; 100 nM): 91.73%
- Mean TH activity [%] (recombinant human TH; 300 nM): 96.86%
- Mean TH activity [%] (recombinant human TH; 1 μM): 89.03%
- Mean TH activity [%] (recombinant human TH; 3 μM): 79.57%
- Mean TH activity [%] (recombinant human TH; 10 μM): 43.11%
- Mean TH activity [%] (recombinant human TH; 30 μM): 14.34%
- inhibition at A3 receptor (A3 receptor): more than 50%
- Mean PAH activity [%] (human recombinant PAH; 10 nM): 99.68%
- IC50 (human recombinant PAH; [2]): 2.69 µM
- Mean PAH activity [%] (human recombinant PAH; 30 nM): 96.34%
- Mean PAH activity [%] (human recombinant PAH; 100 nM): 95.74%
- Mean PAH activity [%] (human recombinant PAH; 300 nM): 92.85%
- Mean PAH activity [%] (human recombinant PAH; 1 μM): 79.01%
- Mean PAH activity [%] (human recombinant PAH; 3 μM): 42.58%
- Mean PAH activity [%] (human recombinant PAH; 10 μM): 18.22%
- Mean PAH activity [%] (human recombinant PAH; 30 μM): 7.18%
- IC50 (human recombinant PAH; supplementary CSV): 2.69 µM
- Mean TPH2 activity [%] (human recombinant TPH2; 3 nM): 99.93%
- Mean TPH2 activity [%] (human recombinant TPH2; 10 nM): 100.78%
- Mean TPH2 activity [%] (human recombinant TPH2; 30 nM): 99.88%
- Mean TPH2 activity [%] (human recombinant TPH2; 100 nM): 97.93%
- Mean TPH2 activity [%] (human recombinant TPH2; 300 nM): 92.18%
- Mean TPH2 activity [%] (human recombinant TPH2; 1 μM): 10.61%
- Mean TPH2 activity [%] (human recombinant TPH2; 3 μM): 3.90%
- Mean TPH2 activity [%] (human recombinant TPH2; 10 μM): 3.17%
- inhibition at 5-HT2A receptor (5-HT2A receptor): more than 50%
- inhibition at 5-HT1B receptor (5-HT1B receptor): more than 50%
